Data: ChEMBL document CHEMBL2029218, “Structure-based design of novel class II c-Met inhibitors: 2. SAR and kinase selectivity profiles of the pyrazolone series” (J Med Chem, 2012)
Values belong to the molecule of their own block, whether it stands above or below them.

How the values were obtained:
[1] = target: Insulin-like growth factor 1 receptor (Homo sapiens, UniProt P08069); assay: Inhibition of IGF1R by HTRF assay
Aurora kinase A = Aurora kinase A (Homo sapiens, UniProt O14965); assay: Inhibition of aurora-1
Angiopoietin-1 receptor = Angiopoietin-1 receptor (Homo sapiens, UniProt Q02763); assay: Inhibition of TIE2
[2] = target: Tyrosine-protein kinase JAK3 (Homo sapiens, UniProt P52333); assay: Inhibition of JAK3
[3] = target: Mast/stem cell growth factor receptor Kit (Homo sapiens, UniProt P10721); assay: Inhibition of c-KIT
[4] = target: RAC-alpha serine/threonine-protein kinase (Homo sapiens, UniProt P31749); assay: Inhibition of PKBalpha
[5] = target: Fibroblast growth factor receptor 1 (Homo sapiens, UniProt P11362); assay: Inhibition of FGFRK
[6] = target: Tyrosine-protein kinase JAK1 (Homo sapiens, UniProt P23458); assay: Inhibition of JAK1
[7] = target: Tyrosine-protein kinase JAK2 (Homo sapiens, UniProt O60674); assay: Inhibition of JAK2
[8] = target: Serine/threonine-protein kinase pim-1 (Homo sapiens, UniProt P11309); assay: Inhibition of PIM1
[9] = target: Serine/threonine-protein kinase pim-2 (Homo sapiens, UniProt Q9P1W9); assay: Inhibition of PIM2
[10] = target: RAC-beta serine/threonine-protein kinase (Homo sapiens, UniProt P31751); assay: Inhibition of PKBbeta
[11] = target: Ribosomal protein S6 kinase beta-1 (Homo sapiens, UniProt P23443); assay: Inhibition of p70S6K
[12] = target: Mitogen-activated protein kinase 3 (Homo sapiens, UniProt P27361); assay: Inhibition of ERK1
[13] = target: Ribosomal protein S6 kinase alpha-5 (Homo sapiens, UniProt O75582); assay: Inhibition of MSK1
[14] = target: Mitogen-activated protein kinase 14 (Homo sapiens, UniProt Q16539); assay: Inhibition of p38alpha
[15] = target: Vascular endothelial growth factor receptor 2 (Homo sapiens, UniProt P35968); assay: Inhibition of VEGFR2 by HTRF assay
[16] = target: Hepatocyte growth factor receptor (Homo sapiens, UniProt P08581)
Description: Inhibition of c-Met by HTRF assay

[17] = target: Macrophage-stimulating protein receptor (Homo sapiens, UniProt Q04912); assay: Inhibition of RON by HTRF assay
[18] = target: Proto-oncogene tyrosine-protein kinase receptor Ret (Homo sapiens, UniProt P07949); assay: Inhibition of RET
[19] = target: Mitogen-activated protein kinase 9 (Homo sapiens, UniProt P45984); assay: Inhibition of JNK2
[20] = target: cAMP-dependent protein kinase catalytic subunit alpha (Homo sapiens, UniProt P17612); assay: Inhibition of PKAalpha
[21] = target: Cyclin-dependent kinase 5/CDK5 activator 1 (Homo sapiens, UniProt Q00535)

IC50 (Aurora kinase A): 1000 nM | IC50 (Angiopoietin-1 receptor): 100 nM | IC50 [2]: 10000 nM | IC50 [3]: 100 nM | IC50 [4]: 10000 nM | IC50 [5]: 1000 nM | IC50 [6]: 10000 nM | IC50 [7]: 1000 nM | IC50 [8]: 25000 nM | IC50 [9]: 25000 nM | IC50 [10]: 25000 nM | IC50 [11]: 1000 nM | IC50 [12]: 25000 nM | IC50 [13]: 10000 nM | IC50 [14]: 1000 nM
SMILES: COc1cc2nccc(Oc3ccc(NC(=O)c4c(C)n(C)n(-c5ccccc5)c4=O)cc3F)c2cc1OC

Ki [15]: 35.9 nM | Ki [1]: 26.5 nM
SMILES: COc1cc2nccc(Oc3ccc(NC(=O)c4c(C)n(C)n(-c5ccccc5)c4=O)c(Cl)c3)c2cc1OC

Ki [15]: 1630 nM | Ki [1]: 217 nM | Ki [16]: 16.7 nM
SMILES: COc1ccc2c(Oc3cnc(NC(=O)c4c(C)n(C)n(-c5ccccc5)c4=O)nc3)ccnc2c1

Ki [15]: 541 nM | Ki [1]: 928 nM
SMILES: COc1ccc2c(Oc3ccc(NC(=O)c4c(CN)n(C)n(-c5ccccc5)c4=O)cc3F)ccnc2c1

Ki [1]: 744 nM
SMILES: CCN(C)Cc1c(C(=O)Nc2ccc(Oc3ccnc4cc(OC)ccc34)c(F)c2)c(=O)n(-c2ccccc2)n1C

Ki [1]: 887 nM
SMILES: COc1ccc2c(Oc3ccc(NC(=O)c4c(CN5CCCC5)n(C)n(-c5ccccc5)c4=O)nc3)ccnc2c1

Ki [15]: > 6600 nM | Ki [1]: 948 nM
SMILES: COc1ccc2c(Oc3ccc(NC(=O)c4c([C@@H]5CCCN5)n(C)n(-c5ccccc5)c4=O)nc3)ccnc2c1

Ki [15]: 1380 nM | Ki [1]: 18.5 nM
SMILES: COc1ccc2c(Oc3ccc(NC(=O)c4c(-c5ccccn5)n(C)n(-c5ccccc5)c4=O)nc3)ccnc2c1

Ki [15]: 2830 nM | Ki [1]: 27 nM
SMILES: COc1ccc2c(Oc3ccc(NC(=O)c4c(-c5cccnc5)n(C)n(-c5ccccc5)c4=O)nc3)ccnc2c1

Ki [15]: 588 nM | Ki [1]: 24.8 nM
SMILES: COc1ccc2c(Oc3ccc(NC(=O)c4c(-c5csc(C)n5)n(C)n(-c5ccccc5)c4=O)nc3)ccnc2c1

Ki [1]: 864 nM
SMILES: COc1ccc2c(Oc3ccc(NC(=O)c4c(C)n(CCO)n(-c5ccccc5)c4=O)cc3F)ccnc2c1

Ki [1]: 2890 nM
SMILES: COCCn1c(C)c(C(=O)Nc2ccc(Oc3ccnc4cc(OC)ccc34)cn2)c(=O)n1-c1ccccc1

Ki [1]: 104 nM
SMILES: COc1ccc2c(Oc3ccc(NC(=O)c4c(C)n(CC(O)CN)n(-c5ccccc5)c4=O)cc3F)ccnc2c1 (stereo unspecified)

Ki [1]: 1660 nM
SMILES: COc1ccc2c(Oc3ccc(NC(=O)c4c(C)n(CC5CNC(=O)O5)n(-c5ccccc5)c4=O)cc3F)ccnc2c1 (stereo unspecified)

Ki [1]: 887 nM
SMILES: COc1ccc2c(Oc3ccc(NC(=O)c4c(C)n(CC(C)(C)O)n(-c5ccccc5)c4=O)cc3F)ccnc2c1

Ki [1]: 915 nM
SMILES: COc1ccc2c(Oc3ccc(NC(=O)c4c(C)n(CC(C)C)n(-c5ccccc5)c4=O)cc3F)ccnc2c1

Ki [1]: 178 nM
SMILES: COc1ccc2c(Oc3ccc(NC(=O)c4c(C)n(C)n(-c5ccccc5)c4=O)cc3F)ccnc2c1

Ki [1]: 695 nM
SMILES: COc1ccc2c(Oc3ccc(NC(=O)c4c(C)n(C[C@H](C)O)n(-c5ccccc5)c4=O)cc3F)ccnc2c1

Ki [1]: 250 nM
SMILES: COc1ccc2c(Oc3ccc(NC(=O)c4c(C5CCOC5)n(C)n(-c5ccccc5)c4=O)cc3F)ccnc2c1 (racemic)

Further lines, the molecule ahead of its results:

SMILES: CC[C@H](O)Cn1c(C)c(C(=O)Nc2ccc(Oc3ccnc4cc(OC)ccc34)c(F)c2)c(=O)n1-c1ccccc1
Ki [1]: 575 nM

SMILES: COc1cc2nccc(Oc3ccc(NC(=O)c4c(C)n(C)n(-c5ccccc5)c4=O)cc3F)c2cc1Br
Ki [15]: 78.9 nM | Ki [1]: 149 nM

SMILES: COc1cc2nccc(Oc3ccc(NC(=O)c4c(C)n(C)n(-c5ccccc5)c4=O)cc3F)c2cc1C
Ki [1]: 146 nM

SMILES: CCc1cc2c(Oc3ccc(NC(=O)c4c(C)n(C)n(-c5ccccc5)c4=O)cc3F)ccnc2cc1OC
Ki [1]: 70.2 nM

SMILES: COc1cc2nccc(Oc3ccc(NC(=O)c4c(C)n(C)n(-c5ccccc5)c4=O)cn3)c2cc1OC
Ki [1]: 1570 nM

SMILES: COc1ccc2c(Oc3ccc(NC(=O)c4c(C)n(C)n(-c5ccccc5)c4=O)c(OC)c3)ccnc2c1
Ki [15]: 702 nM | Ki [1]: 93.6 nM

SMILES: COc1cc2nccc(Oc3ccc(NC(=O)c4c(C)n(C)n(-c5ccccc5)c4=O)nc3)c2cc1OC
Ki [1]: 233 nM

SMILES: COc1ccc2c(Oc3ccc(NC(=O)c4c(C)n(C)n(-c5ccccc5)c4=O)nc3)ccnc2c1
Ki [1]: 618 nM

SMILES: COc1ccc2c(Oc3ccc(NC(=O)c4c(CNC(=O)OC(C)(C)C)n(C)n(-c5ccccc5)c4=O)cc3F)ccnc2c1
Ki [1]: > 6600 nM

SMILES: COc1ccc2c(Oc3ccc(NC(=O)c4c(CN5CCCC5)n(C)n(-c5ccccc5)c4=O)cc3F)ccnc2c1
Ki [1]: 1800 nM

SMILES: COc1ccc2c(Oc3ccc(NC(=O)c4c(C(C)(C)N)n(C)n(-c5ccccc5)c4=O)cc3F)ccnc2c1
Ki [1]: 3100 nM

SMILES: COc1ccc2c(Oc3ccc(NC(=O)c4c([C@@H]5CCCN5)n(C)n(-c5ccccc5)c4=O)cc3F)ccnc2c1
Ki [15]: 2240 nM | Ki [1]: 680 nM

SMILES: COc1ccc2c(Oc3ccc(NC(=O)c4c(C5CCOCC5)n(C)n(-c5ccccc5)c4=O)cc3F)ccnc2c1
Ki [1]: 144 nM

SMILES: COc1ccc2c(Oc3ccc(NC(=O)c4c(C5CCOCC5)n(C)n(-c5ccccc5)c4=O)nc3)ccnc2c1
Ki [15]: 2720 nM | Ki [1]: 42.7 nM

SMILES: COc1ccc2c(Oc3ccc(NC(=O)c4c(-c5ccncc5)n(C)n(-c5ccccc5)c4=O)nc3)ccnc2c1
Ki [15]: > 6600 nM | Ki [1]: 35.9 nM

SMILES: COc1ccc2c(Oc3ccc(NC(=O)c4c(-c5cnccn5)n(C)n(-c5ccccc5)c4=O)nc3)ccnc2c1
Ki [15]: 4730 nM | Ki [1]: 87.7 nM

SMILES: COc1ccc2c(Oc3ccc(NC(=O)c4c(-c5cc(C)on5)n(C)n(-c5ccccc5)c4=O)nc3)ccnc2c1
Ki [15]: 501 nM | Ki [1]: 30.9 nM

SMILES: CCn1c(C)c(C(=O)Nc2ccc(Oc3ccnc4cc(OC)ccc34)c(F)c2)c(=O)n1-c1ccccc1
Ki [1]: 557 nM

SMILES: CCn1c(C)c(C(=O)Nc2ccc(Oc3ccnc4cc(OC)ccc34)cn2)c(=O)n1-c1ccccc1
Ki [1]: 708 nM

SMILES: CCCn1c(C)c(C(=O)Nc2ccc(Oc3ccnc4cc(OC)ccc34)cn2)c(=O)n1-c1ccccc1
Ki [1]: 730 nM

SMILES: C=C(C)Cn1c(C)c(C(=O)Nc2ccc(Oc3ccnc4cc(OC)ccc34)c(F)c2)c(=O)n1-c1ccccc1
Ki [1]: 249 nM

SMILES: COc1ccc2c(Oc3ccc(NC(=O)c4c(C)n(CCN)n(-c5ccccc5)c4=O)cc3F)ccnc2c1
Ki [1]: 872 nM

SMILES: COc1ccc2c(Oc3ccc(NC(=O)c4c(C)n(CCO)n(-c5ccccc5)c4=O)nc3)ccnc2c1
Ki [1]: 1100 nM

SMILES: COc1ccc2c(Oc3ccc(NC(=O)c4c(C)n(CC(C)O)n(-c5ccccc5)c4=O)nc3)ccnc2c1 (stereo unspecified)
Ki [1]: 1290 nM

SMILES: COc1ccc2c(Oc3ccc(NC(=O)c4c(C)n(CC(O)C(C)C)n(-c5ccccc5)c4=O)cc3F)ccnc2c1 (stereo unspecified)
Ki [1]: 637 nM

SMILES: CCCn1c(C)c(C(=O)Nc2ccc(Oc3ccnc4cc(OC)ccc34)c(F)c2)c(=O)n1-c1ccccc1
Ki [1]: 419 nM

SMILES: COc1ccc2c(Oc3ccc(NC(=O)c4c(C)n(CC(C)(C)O)n(-c5ccccc5)c4=O)nc3)ccnc2c1
IC50 [17]: 10 nM | IC50 [3]: 10000 nM | IC50 [4]: 10000 nM | IC50 [5]: 25000 nM | IC50 [6]: 25000 nM | IC50 [7]: 25000 nM | IC50 [8]: 25000 nM | IC50 [9]: 25000 nM | IC50 [10]: 25000 nM | IC50 [18]: 25000 nM | IC50 [11]: 25000 nM | IC50 [12]: 100000 nM | IC50 [19]: 100000 nM | IC50 [13]: 100000 nM | IC50 [14]: 100000 nM | IC50 [20]: 100000 nM | IC50 [21]: 100000 nM | IC50 [16]: 10 nM | Ki [16]: 1 nM

SMILES: COc1ccc2c(Oc3ccc(NC(=O)c4c(C)n(C[C@@H](C)O)n(-c5ccccc5)c4=O)cc3F)ccnc2c1
Ki [1]: 744 nM

SMILES: COc1ccc2c(Oc3ccc(NC(=O)c4c(C5CCCO5)n(C)n(-c5ccccc5)c4=O)cc3F)ccnc2c1 (racemic)
Ki [1]: 190 nM

SMILES: COc1ccc2c(Oc3ccc(NC(=O)c4c(C)n(CC(C)O)n(-c5ccccc5)c4=O)cc3F)ccnc2c1 (racemic)
Ki [1]: 1330 nM
